This note sets out measurements from patent US10633389B2, “CARM1 inhibitors and uses thereof” (Epizyme, Inc., priority 2013, dated 2020).

The structures appear in SMILES notation. Bounds are passed on as bounds.

This assay has as its system asymmetric di-methyl PABP1 in RKO cells. As to the kind of experiment: RKO methylation assay, In Cell Western (ICW) for asymmetric di-methyl PABP1. It is filed as cell-based. Conditions: Homo sapiens, RKO, Cellular potencies, ICW PABP1me2a. From the text: RKO adherent cells were purchased from ATCC (American Type Culture Collection), Manassas, Va., USA. DMEM/Glutamax medium, penicillin-streptomycin, heat inactivated fetal bovine serum, 0.05% trypsin and D-PBS were purchased from Life Technologies, Grand Island, N.Y., USA. Odyssey blocking buffer, 800 CW goat anti-rabbit IgG (H+L) antibody, and Licor Odyssey infrared scanner were purchased from Licor Biosciences, Lincoln, Nebr., USA. Asymmetric di-methyl PABP1 antibody was purchased from Cell Signaling Technology, Danvers, Mass., USA. Methanol was purchased from VWR, Franklin, Mass., USA. 10% Tween 20 was purchased from KPL, Inc., Gaithersburg, Md., USA. Paraformaldehyde (PFA) was purchased from EM Sciences. DRAQ5 was purchased from Biostatus Limited, Leicestershire, UK.
RKO adherent cells were maintained in growth medium (DMEM/Glutamax medium supplemented with 10% v/v heat inactivated fetal bovine serum and 100 units/mL penicillin-streptomycin) and cultured at 37° C. under 5% CO2.
Cell treatment, In Cell Western (ICW) for detection of asymmetric di-methyl PABP1 and DNA content: RKO cells were seeded in assay medium at a concentration of 30,000 cells per mL to a poly-D-lysine coated 384 well culture plate (BD Biosciences 356697) with 50 VL per well. Compound (100 nL) from a 96-well source plate was added directly to 384 well cell plate. Plates were incubated at 37° C., 5% CO2 for 48 hours. After two days of incubation, plates were brought to room temperature outside of the incubator for ten minutes and blotted on paper towels to remove cell media. Cells were fixed for 20 minutes at room temperature by adding 50 ul of 8% PFA followed by aspiration of supernatant with the Biotek EL406 plate washer. Cells were then permeabilized by addition of 50 μL of ice cold 100% methanol directly to each well and incubated for 30 min at room temperature. After 30 min, plates were transferred to a Biotek EL406 plate washer and washed 2 times with 100 μL per well of wash buffer (1×PBS). Next 60 μL per well of Odyssey blocking buffer (Odyssey Buffer with 0.1% Tween 20 (v/v)) were added to each plate and incubated 1 hour at room temperature. Blocking buffer was removed and 20 μL per well of primary antibody was added (asymmetric-methyl PABP1) diluted 1:400 in Odyssey buffer with 0.1% Tween 20 (v/v)) and plates were incubated overnight (16 hours) at 4° C. Plates were washed 5 times with 100 μL per well of wash buffer. Next 20 μL per well of secondary antibody was added (1:800 800 CW goat anti-rabbit IgG (H+L) antibody, 1:2000 DRAQ5 in Odyssey buffer with 0.1% Tween 20 (v/v)) and incubated for 1 hour at room temperature. The plates were washed 5 times with 100 μL per well wash buffer then 2 times with 100 μL per well of water. Plates were allowed to dry at room temperature then imaged on the Licor Odyssey machine which measures integrated intensity at 700 nm and 800 nm wavelengths. Both 700 and 800 channels were scanned.
First, the ratio for each well was determined by:
Each plate included fourteen control wells of DMSO only treatment (minimum inhibition) as well as fourteen control wells for maximum inhibition treated with 20 μM of a reference compound. The average of the ratio values for each control type was calculated and used to determine the percent […] for each test well in the plate. Reference compound was serially diluted three-fold in DMSO for a total of nine test concentrations, beginning at 20 μM.
Percent inhibition was determined and IC50 curves were generated using triplicate wells per concentration of compound. […]
The term IC50 denotes the midpoint of a concentration-inhibition curve. As to `CNC[C@H](O)COc1cccc(-c2nc(-c3cnc4cnccn34)cc(N(C)C3CCOCC3)n2)c1` [Example 486-1a], the IC50 is less than 5 µM.
Regarding `CNCC(O)COc1cccc(-c2nc(-c3c(C)noc3C)cc(N3CCN(CCF)[C@H](C)C3)n2)c1` (stereo partly drawn) [Example 145-1a], the IC50 lay in the range of 5 to 10 µM.
In turn, `CNCC(O)COc1cccc(-c2nc(N[C@@H]3CCOC3)c(C)c(N3CC[C@@H](O)C3)n2)c1` (stereo partly drawn) [Example 437-1a] registered a half-inhibitory concentration (IC50) of 5 to 10 µM.
The value for `CNCC(O)COc1cc(Cl)cc(-c2nc(-c3ccnc(N(C)C)c3)cc(N(C)C3CCOCC3)n2)c1` (stereo not drawn) [Example 609-1a] was 10 to 20 µM; that for `CNCC(O)COc1cccc(-c2nc(NC3CCN(C(=O)OC)CC3)c(Cl)c(-c3c(C)noc3C)n2)c1` (stereo not drawn) [Example 202-1a] was less than 5 µM.
Regarding `CNCC(O)COc1cccc(-c2nc(-c3c(C)noc3C)cc(-c3cnc4cnccn34)n2)c1` (stereo not drawn) [Example 112-1a], the IC50 lay in the range of 10 to 20 µM.
Take `CNCC(O)COc1cccc(-c2nc(N3CC4CCC(C3)O4)cc(N(C)C3CCOCC3)n2)c1` (stereo not drawn) [Example 566-1a]: the IC50 is 10 to 20 µM.
For the compound `CCOC(=O)N1CCOC[C@H]1CNc1nc(-c2cc(OC[C@@H](O)CNC)ccc2F)nc(-c2c(C)noc2C)c1C` [Example 59-3], the half-maximal inhibitory concentration (IC50) was less than 5 µM.
In turn, `CCO[C@@H]1CCC[C@H]1Nc1nc(-c2cc(OC[C@H](O)CNC)ccc2Cl)nc(-c2c(C)noc2C)c1C` [Example 240-3] yielded a 50% inhibitory concentration (IC50) of less than 5 µM.
With `CNCC(O)COc1cccc(-c2nc(Nc3nnc(C4CC4)s3)c(C)c(-c3c(C)noc3C)n2)c1` (stereo not drawn) [Example 217-1a], the concentration for half-maximal inhibition (IC50) is less than 5 µM.
With `CNCC(O)COc1ccc(Cl)c(-c2nc(NC3CC(C)N(C(=O)OC)C(C)C3)c(C)c(-c3c(C)noc3C)n2)c1` (stereo not drawn) [Example 46-3], the IC50 is less than 5 µM.
For the compound `CNCC(O)COc1cccc(-c2nc(NCC3(C)CCOCC3)c(C)c(-c3c(C)noc3C)n2)c1` (stereo not drawn) [Example 115-1a], the IC50 is less than 5 µM.
The compound `CNCC(O)COc1ccc(Cl)c(-c2nc(NC3CCN(C(=O)OC)CC3)c(Cl)c(-c3c(C)noc3C)n2)c1` (stereo not drawn) [Example 187-1a] displayed a half-maximal inhibitory concentration (IC50) of less than 5 µM.
For `CNC[C@H](O)COc1ccc(F)c(-c2nc(NC3CCOC(C)C3)c(C)c(-c3c(C)noc3C)n2)c1` (stereo partly drawn) [Example 73-3], the IC50 is less than 5 µM.
Compound `CNCC(O)COc1cccc(-c2nc(NC3CCOCC3)c(C)c(-c3c(C)noc3C3CC3)n2)c1` (stereo not drawn) [Example 236-1a] yielded an IC50 of less than 5 µM.
Consider `CNCC(O)COc1cccc(-c2nc(N3CCN(CCF)[C@@H](C)C3)cc(N(C)C3CCOCC3)n2)c1` (stereo partly drawn) [Example 578-1a], for which the IC50 was 10 to 20 µM.
The compound `CNCC(O)COc1cccc(-c2nc(Nc3cnc(C)nc3)cc(-c3c(C)noc3C)n2)c1` (stereo not drawn) [Example 49-1a] displayed a 50% inhibitory concentration (IC50) of 5 to 10 µM.
Under `CCOC(=O)N1CCC2(CC1)CN(c1nc(-c3cc(OC[C@H](O)CNC)ccc3Cl)nc(-c3c(C)noc3C)c1C)C2` [Example 285-3] stands less than 5 µM.
`CNCC(O)COc1cccc(-c2nc(NC3CCN(CC(F)F)CC3)c(C)c(-c3c(C)noc3C)n2)c1` (stereo not drawn) [Example 188-1a] registered a 50% inhibitory concentration (IC50) of less than 5 µM.
`CNC[C@@H](O)COc1ccc(Cl)c(-c2nc(-c3cnn(C)c3)c(C)c(-c3c(C)noc3C)n2)c1` [Example 239-3] registered a half-inhibitory concentration (IC50) of less than 5 µM.
The value for `CNC[C@@H](O)COc1ccc(F)c(-c2nc(-c3c(C)noc3C)c(Cl)c(N3Cc4nccnc4C3)n2)c1` [Example 295-3] was less than 5 µM; that for `CNC[C@@H](O)COc1ccc(Cl)c(-c2nc(N[C@H]3CCN(C4CC4)C[C@H]3F)c(C)c(-c3c(C)noc3C)n2)c1` [Example 44-3] was less than 5 µM; that for `CNC[C@@H](O)COc1ccc(Cl)c(-c2nc(NC[C@@H]3CCOC3)c(C)c(-c3c(C)noc3C)n2)c1` [Example 228-3] was less than 5 µM.
The compound `CCOC(=O)N1CCOC[C@@H]1COc1nc(-c2cc(OC[C@H](O)CNC)ccc2Cl)nc(-c2c(C)noc2C)c1C` [Example 161-3] displayed a half-maximal inhibitory concentration (IC50) of less than 5 µM.
`CNC[C@@H](O)COc1ccc(Cl)c(-c2nc(N[C@H]3C[C@H](OC)C3)c(Cl)c(-c3c(C)noc3C)n2)c1` [Example 217-3] returned a concentration for half-maximal inhibition (IC50) of less than 5 µM.
For `CCOC(=O)N1CC[C@@H](Nc2nc(-c3cc(OC[C@H](O)CNC)ccc3Cl)nc(-c3c(C)noc3C)c2C)C1` [Example 112-3], the IC50 was less than 5 µM.
`CNCC(O)COc1cccc(-c2nc(NC3CCOCC3)cc(-c3ccc(OC)c(OC)c3)n2)c1` (stereo not drawn) [Example 658-1a]: the concentration for half-maximal inhibition (IC50) is not below 20 µM.
For the compound `CNCC(O)COc1cccc(-c2nc(-c3c(C)noc3C)c(C)c(N3CCO[C@@H](CN(C)C(=O)OC)C3)n2)c1` (stereo partly drawn) [Example 149-1a], the concentration for half-maximal inhibition (IC50) was less than 5 µM.
`CNC[C@H](O)COc1ccc(F)c(-c2nc(-c3c(C)noc3C)c(C)c(N3CCC4(CCN(C(=O)OC)C4)C3)n2)c1` (stereo partly drawn) [Example 106-3] came in with an IC50 of less than 5 µM.
In turn, `CNCC(O)COc1ccc(Cl)c(-c2nc(NC3CCOCC3)c(C)c(-c3c(CO)noc3C)n2)c1` (stereo not drawn) [Example 273-3] displayed a concentration for half-maximal inhibition (IC50) of 5 to 10 µM.
In the case of `CNC[C@H](O)COc1ccc(Cl)c(-c2nc(-c3c(C)noc3C)c(C)c(N3CCC4(CC3)CN(S(C)(=O)=O)C4)n2)c1` [Example 75-3], the half-inhibitory concentration (IC50) is less than 5 µM.
`CNC[C@@H](O)COc1ccc(Cl)c(-c2nc(N[C@@H]3CO[C@@H](C)C3)c(Cl)c(-c3c(C)noc3C)n2)c1` [Example 181-3]: the IC50 was less than 5 µM.
Regarding `CCOC(=O)N1CCCC[C@@H]1CNc1nc(-c2cc(OC[C@H](O)CNC)ccc2Cl)nc(-c2c(C)noc2C)c1C` [Example 154-3], the half-inhibitory concentration (IC50) was less than 5 µM.
As to `CCOC(=O)N1CCOC[C@@H]1CNc1nc(-c2cc(OC[C@H](O)CNC)ccc2Cl)nc(-c2c(C)noc2C)c1Cl` [Example 56-3], the concentration for half-maximal inhibition (IC50) is less than 5 µM.
In turn, `CNCC(O)COc1cccc(-c2nc(N[C@H]3C[C@@](C)(OC)C3)c(C)c(-c3c(C)noc3C)n2)c1` (stereo partly drawn) [Example 19-3] showed an IC50 of less than 5 µM.
As to `CNCC(O)COc1cccc(-c2nc(N[C@@H]3CCOC3)c(C)c(N3CCC[C@@H](O)C3)n2)c1` (stereo partly drawn) [Example 358-1a], the IC50 fell in the range of 10 to 20 µM.
The value for `CNCC(O)COc1cccc(-c2nc(N[C@@H]3CCOC3)c(C)c(N3CCC4(CCOCC4)C3)n2)c1` (stereo partly drawn) [Example 462-1a] was 10 to 20 µM.
For the compound `CNC[C@@H](O)COc1cccc(-c2nc(NCC3CCOCC3)c(C)c(-c3c(C)noc3C)n2)c1` [Example 183-1a], the half-maximal inhibitory concentration (IC50) is less than 5 µM.
`CNCC(O)COc1cccc(-c2nc(NCC3CCCN(CC(F)F)C3)c(C)c(-c3c(C)noc3C)n2)c1` (stereo not drawn) [Example 193-1a]: the IC50 is less than 5 µM.
`CCOC(=O)N1CCCCC1CNc1nc(-c2cc(OC[C@@H](O)CNC)ccc2Cl)nc(-c2c(C)noc2C)c1C` (stereo partly drawn) [Example 27-3] came in with a concentration for half-maximal inhibition (IC50) of less than 5 µM.
Consider `CNCC(O)COc1cccc(-c2nc(NC3CCN(C(=O)OC)CC3)c(C)c(-c3c(C)noc3C)n2)c1` (stereo not drawn) [Example 118-1a], for which the IC50 was less than 5 µM.
Under `CNCC(O)COc1ccc(Cl)c(-c2nc(NC[C@@H]3CCCO3)c(C)c(-c3c(C)noc3C)n2)c1` (stereo partly drawn) [Example 7-3] stands less than 5 µM; under `CNCC(O)COc1cccc(-c2nc(-c3c(C)noc3C)cc(N3CCN(C(C)=O)[C@@H](C)C3)n2)c1` (stereo partly drawn) [Example 38-1a], 5 to 10 µM.
Consider `CNCC(O)COc1cc(Cl)cc(-c2nc(NC3CCNCC3)cc(-c3ccncc3)n2)c1` (stereo not drawn) [Example 665-1a], for which the half-maximal inhibitory concentration (IC50) was not below 20 µM.
`CNC[C@H](O)COc1ccc(Cl)c(-c2nc(-c3c(C)noc3C)cc(N3CC4(CCN(C5CC5)CC4)C3)n2)c1` [Example 69-3] had a 50% inhibitory concentration (IC50) of less than 5 µM.
Under `CNCC(O)COc1cccc(-c2nc(-c3c(C)noc3C)c(C)c(N3CCO[C@H](CN(C)S(C)(=O)=O)C3)n2)c1` (stereo partly drawn) [Example 126-1a] stands 5 to 10 µM; under `CNC[C@@H](O)COc1ccc(Cl)c(-c2nc(N[C@H]3CO[C@@H](C)C3)c(C)c(-c3c(C)noc3C)n2)c1` [Example 152-3], less than 5 µM; under `CNCC(O)COc1cccc(-c2nc(N[C@@H]3CCOC3)c(C)c(-c3cnc(OC)nc3)n2)c1` (stereo partly drawn) [Example 356-1a], 10 to 20 µM.
